From US20080009418A1, “Selective Inhibitors” (Alchemia LTD., priority 2004, published 2008)

Key:
[1] = molecular target: T1, Human neuropeptide Y (NPY-Y1) (Homo sapiens, UniProt P25929); experiment: Radioligand binding, human neuropeptide Y NPY-Y1 membranes, FlashPlate, [125I]-PYY; details: compound at 10 μM, [125I]-PYY
T1 construct: purchased Perkin Elmer Biosignal
T1 sequence (P25929 1-384): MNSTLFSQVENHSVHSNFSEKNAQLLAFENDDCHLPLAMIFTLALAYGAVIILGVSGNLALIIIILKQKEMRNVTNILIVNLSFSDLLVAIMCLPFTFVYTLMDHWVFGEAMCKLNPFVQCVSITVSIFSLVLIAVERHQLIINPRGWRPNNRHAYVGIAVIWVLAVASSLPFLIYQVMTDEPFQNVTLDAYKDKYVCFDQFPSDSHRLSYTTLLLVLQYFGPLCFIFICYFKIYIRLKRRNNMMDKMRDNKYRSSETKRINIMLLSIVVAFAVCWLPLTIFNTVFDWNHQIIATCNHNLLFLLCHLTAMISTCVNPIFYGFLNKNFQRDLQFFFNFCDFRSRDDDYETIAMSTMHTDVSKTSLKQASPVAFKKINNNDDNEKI
In short: (§1)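 Cloned human receptor membranes were coated onto FlashPlate wells and incubated with radioligand and compound (added from a 0.5 mM DMSO daughter plate) for 1 hour at room temperature in the dark. Scintillation counting gave percent inhibition, with DMSO defining total and reference ligand defining non-specific binding.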

Human Melanocortin (MC3) = molecular target: T2, Human Melanocortin (MC3) (Homo sapiens, UniProt P41968); experiment: Radioligand binding, human melanocortin MC3 membranes, FlashPlate, [125I]-NDP-αMSH; details: compound at 10 μM, [125I]-NDP-αMSH
T2 construct: purchased Perkin Elmer Biosignal
In short: as §1

Human neurokinin (NK1) = molecular target: T3, Human neurokinin (NK1) (Homo sapiens, UniProt P25103); experiment: Radioligand binding, human neurokinin NK1 membranes, filtration, [125I]-Substance P; details: compound at 10 μM, [125I]-Substance P
T3 construct: purchased Perkin Elmer Biosignal
In short: (§2)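 Filtration binding on cloned human receptor membranes (1 Unit/well), [125I]-Substance P for NK1 and [3H]-Diprenorphine for KOP, 1 h at room temperature. Filters PEI-presoaked, washed with cold 50 mM Tris-HCl pH 7.4, counted by scintillation; percent inhibition calculated, reference ligand defining non-specific binding.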

Human melanocortin (MC5) = molecular target: T4, Human melanocortin (MC5) (Homo sapiens, UniProt P33032); experiment: Radioligand binding, human melanocortin MC5 membranes, FlashPlate, [125I]-NDP-αMSH; details: compound at 10 μM, [125I]-NDP-αMSH
T4 construct: purchased Perkin Elmer Biosignal
In short: as §1

Human opioid (ORL1) = molecular target: T5, Human opioid (ORL1) (Homo sapiens, UniProt P41146); experiment: Radioligand binding, human opioid ORL1 membranes, FlashPlate, [125I]-Nociceptin; details: compound at 10 μM, [125I]-Nociceptin
T5 construct: purchased Perkin Elmer Biosignal
In short: as §1

Mouse urotensin (mUR2) = molecular target: T6, Mouse urotensin (mUR2) (Mus musculus, UniProt Q8VIH9); experiment: Radioligand binding, mouse urotensin mUR2 membranes, FlashPlate, [125I]-Urotensin II; details: compound at 10 μM, [125I]-Urotensin II
T6 construct: purchased Perkin Elmer Biosignal
T6 sequence (Q8VIH9 1-385): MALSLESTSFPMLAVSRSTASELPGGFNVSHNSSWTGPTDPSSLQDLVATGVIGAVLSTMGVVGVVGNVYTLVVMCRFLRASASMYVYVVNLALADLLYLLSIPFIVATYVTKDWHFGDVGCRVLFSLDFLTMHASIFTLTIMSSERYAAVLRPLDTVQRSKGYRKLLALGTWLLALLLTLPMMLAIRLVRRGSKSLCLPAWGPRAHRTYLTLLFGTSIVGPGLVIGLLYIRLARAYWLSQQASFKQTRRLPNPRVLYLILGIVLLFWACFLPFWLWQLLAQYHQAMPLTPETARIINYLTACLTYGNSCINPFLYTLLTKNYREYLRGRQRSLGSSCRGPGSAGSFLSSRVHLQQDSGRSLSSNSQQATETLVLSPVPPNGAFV
In short: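 Cloned mouse urotensin (mUR2) receptor membranes from Perkin Elmer Biosignal were immobilized in FlashPlate microplates using a proprietary coating. Each well got 19.5 μl buffer, then 0.5 μl of DMSO, reference ligand, or compound. Adding 5 μl of [125I]-Urotensin II, diluted to 5× final concentration in binding buffer, started binding. Plates were sealed with TopSeal-A and incubated 1 hour at room temperature in the dark. Wells were counted for 30 seconds each on a TopCount after a 60-second delay, and percentage inhibition was calculated.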

[2] = molecular target: T7, Human melanin-concentrating hormone (MCH1) (Homo sapiens, UniProt Q99705); experiment: Radioligand binding, human melanin-concentrating hormone MCH1 membranes, FlashPlate, [125I]-S36057; details: compound at 10 μM; for A6 radioligand binding, percentage inhibition: [125I]-S36057
T7 construct: purchased Perkin Elmer Biosignal
In short: as §1

Human κ-Opioid (KOP) = molecular target: T8, Human κ-Opioid (KOP) (Homo sapiens, UniProt P41145); experiment: Radioligand binding, human κ-opioid (KOP) membranes, filtration, [3H]-Diprenorphine; details: compound at 10 μM, [3H]-Diprenorphine
T8 construct: purchased Perkin Elmer Biosignal
In short: as §2

Human δ-opioid (DOP) = molecular target: T9, Human δ-opioid (DOP) (Homo sapiens, UniProt P41143); experiment: Radioligand binding, human δ-opioid (DOP) membranes, FlashPlate, [3H]-Bremazocine; details: compound at 10 μM, [3H]-Bremazocine
T9 construct: purchased Perkin Elmer Biosignal
In short: as §1

Human μ-opioid (MOP) = molecular target: T10, Human μ-opioid (MOP) (Homo sapiens, UniProt P35372); experiment: Radioligand binding, human μ-opioid (MOP) membranes, FlashPlate, [3H]-Naloxone; details: compound at 10 μM, [3H]-Naloxone
T10 construct: purchased Perkin Elmer Biosignal
In short: as §1

Human Melanocortin (MC4) = molecular target: T11, Human Melanocortin (MC4) (Homo sapiens, UniProt P32245); experiment: Radioligand binding, human melanocortin MC4 membranes, FlashPlate, [125I]-NDP-αMSH; details: compound at 10 μM, [125I]-NDP-αMSH
T11 construct: purchased Perkin Elmer Biosignal
In short: as §1

T3 sequence (P25103 whole entry): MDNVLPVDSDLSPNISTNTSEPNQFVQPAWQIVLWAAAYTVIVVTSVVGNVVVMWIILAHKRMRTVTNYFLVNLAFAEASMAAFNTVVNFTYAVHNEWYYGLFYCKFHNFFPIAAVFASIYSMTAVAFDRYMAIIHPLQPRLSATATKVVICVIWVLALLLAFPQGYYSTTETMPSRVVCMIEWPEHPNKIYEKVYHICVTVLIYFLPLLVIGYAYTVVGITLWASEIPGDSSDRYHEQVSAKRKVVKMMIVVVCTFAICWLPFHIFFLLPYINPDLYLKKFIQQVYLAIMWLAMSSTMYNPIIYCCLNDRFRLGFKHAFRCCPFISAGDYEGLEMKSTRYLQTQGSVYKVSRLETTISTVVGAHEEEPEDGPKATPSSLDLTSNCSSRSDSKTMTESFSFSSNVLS
T9 sequence (P41143 whole entry): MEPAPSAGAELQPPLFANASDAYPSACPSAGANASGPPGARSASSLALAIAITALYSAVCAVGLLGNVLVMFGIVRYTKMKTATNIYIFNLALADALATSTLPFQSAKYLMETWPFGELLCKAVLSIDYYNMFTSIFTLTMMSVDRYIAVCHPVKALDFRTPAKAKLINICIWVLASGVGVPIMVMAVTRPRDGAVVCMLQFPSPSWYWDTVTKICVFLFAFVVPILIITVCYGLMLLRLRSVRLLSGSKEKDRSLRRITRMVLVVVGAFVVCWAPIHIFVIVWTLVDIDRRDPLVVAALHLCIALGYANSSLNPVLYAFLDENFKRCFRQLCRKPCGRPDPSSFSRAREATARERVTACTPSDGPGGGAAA
T11 sequence (P32245 whole entry): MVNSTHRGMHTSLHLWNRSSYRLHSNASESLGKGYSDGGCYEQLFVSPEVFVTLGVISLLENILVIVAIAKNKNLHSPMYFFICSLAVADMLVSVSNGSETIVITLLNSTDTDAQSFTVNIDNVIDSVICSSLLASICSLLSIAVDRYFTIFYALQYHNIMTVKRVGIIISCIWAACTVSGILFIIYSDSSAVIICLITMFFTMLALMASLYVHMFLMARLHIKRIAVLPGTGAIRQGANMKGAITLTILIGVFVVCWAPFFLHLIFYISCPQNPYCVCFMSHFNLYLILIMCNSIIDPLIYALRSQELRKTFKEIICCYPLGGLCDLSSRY
T7 sequence (Q99705 whole entry): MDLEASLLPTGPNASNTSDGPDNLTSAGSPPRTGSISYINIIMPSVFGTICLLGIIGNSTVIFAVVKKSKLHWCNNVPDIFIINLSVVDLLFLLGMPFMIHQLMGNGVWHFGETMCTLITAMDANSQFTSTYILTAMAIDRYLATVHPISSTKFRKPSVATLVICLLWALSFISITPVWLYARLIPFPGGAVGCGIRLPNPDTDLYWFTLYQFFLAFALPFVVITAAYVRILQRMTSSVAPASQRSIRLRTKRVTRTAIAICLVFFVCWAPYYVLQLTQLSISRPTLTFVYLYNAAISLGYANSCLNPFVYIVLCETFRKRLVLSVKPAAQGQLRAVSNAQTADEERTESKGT
T8 sequence (P41145 whole entry): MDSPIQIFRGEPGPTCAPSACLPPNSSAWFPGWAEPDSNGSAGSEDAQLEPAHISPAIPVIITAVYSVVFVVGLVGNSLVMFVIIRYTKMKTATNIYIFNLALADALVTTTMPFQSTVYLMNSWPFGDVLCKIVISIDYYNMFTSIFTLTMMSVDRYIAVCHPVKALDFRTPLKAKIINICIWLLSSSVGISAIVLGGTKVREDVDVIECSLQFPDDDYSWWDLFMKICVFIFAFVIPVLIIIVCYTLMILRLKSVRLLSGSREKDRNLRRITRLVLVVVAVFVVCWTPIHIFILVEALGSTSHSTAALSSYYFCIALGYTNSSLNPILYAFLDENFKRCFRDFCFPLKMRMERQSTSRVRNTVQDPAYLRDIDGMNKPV
T2 sequence (P41968 whole entry): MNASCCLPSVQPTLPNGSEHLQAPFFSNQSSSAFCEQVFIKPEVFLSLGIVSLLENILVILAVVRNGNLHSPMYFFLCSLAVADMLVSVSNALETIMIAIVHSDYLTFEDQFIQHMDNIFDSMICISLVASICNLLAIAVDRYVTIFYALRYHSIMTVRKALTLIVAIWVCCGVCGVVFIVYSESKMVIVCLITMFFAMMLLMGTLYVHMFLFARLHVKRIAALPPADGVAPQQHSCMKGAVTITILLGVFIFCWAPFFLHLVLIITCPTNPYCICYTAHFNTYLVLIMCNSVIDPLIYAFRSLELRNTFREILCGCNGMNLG
T5 sequence (P41146 whole entry): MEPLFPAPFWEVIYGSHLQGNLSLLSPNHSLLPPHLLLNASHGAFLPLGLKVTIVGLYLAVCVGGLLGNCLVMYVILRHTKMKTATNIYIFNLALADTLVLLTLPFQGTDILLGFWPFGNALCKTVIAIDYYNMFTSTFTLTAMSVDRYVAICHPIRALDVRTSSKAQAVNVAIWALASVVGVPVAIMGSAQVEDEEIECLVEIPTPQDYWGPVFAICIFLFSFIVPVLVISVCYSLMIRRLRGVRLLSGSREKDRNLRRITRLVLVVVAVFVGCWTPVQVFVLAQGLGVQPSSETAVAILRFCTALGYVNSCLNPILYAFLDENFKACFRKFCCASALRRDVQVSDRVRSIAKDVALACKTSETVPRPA
T10 sequence (P35372 whole entry): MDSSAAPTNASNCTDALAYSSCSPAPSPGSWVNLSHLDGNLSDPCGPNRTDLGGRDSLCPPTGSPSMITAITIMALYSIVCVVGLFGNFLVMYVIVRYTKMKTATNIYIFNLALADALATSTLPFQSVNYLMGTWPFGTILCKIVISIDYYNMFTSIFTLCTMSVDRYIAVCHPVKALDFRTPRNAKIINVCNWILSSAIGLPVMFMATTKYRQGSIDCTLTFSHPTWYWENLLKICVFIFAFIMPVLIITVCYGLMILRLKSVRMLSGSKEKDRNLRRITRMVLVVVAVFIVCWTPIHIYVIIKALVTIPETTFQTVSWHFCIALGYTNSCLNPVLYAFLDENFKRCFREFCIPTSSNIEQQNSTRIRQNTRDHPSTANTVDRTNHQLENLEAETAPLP
T4 sequence (P33032 whole entry): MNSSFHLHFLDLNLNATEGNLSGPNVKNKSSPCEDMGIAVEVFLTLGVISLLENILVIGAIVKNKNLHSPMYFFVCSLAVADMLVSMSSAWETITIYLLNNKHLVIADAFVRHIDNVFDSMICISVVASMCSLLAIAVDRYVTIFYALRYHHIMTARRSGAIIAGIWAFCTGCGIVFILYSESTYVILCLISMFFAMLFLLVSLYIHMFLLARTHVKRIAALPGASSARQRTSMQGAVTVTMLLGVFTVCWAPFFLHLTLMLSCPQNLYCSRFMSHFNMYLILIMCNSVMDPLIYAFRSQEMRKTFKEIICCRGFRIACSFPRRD

Row | SMILES | A9 radioligand binding, percentage inhibition [1] | A3 radioligand binding, percentage inhibition (Human Melanocortin (MC3)) | A8 radioligand binding, percentage inhibition (Human neurokinin (NK1)) | A5 radioligand binding, percentage inhibition (Human melanocortin (MC5)) | A10 radioligand binding, percentage inhibition (Human opioid (ORL1)) | A11 radioligand binding, percentage inhibition (Mouse urotensin (mUR2)) | A6 radioligand binding, percentage inhibition [2] | A2 radioligand binding, percentage inhibition (Human κ-Opioid (KOP)) | A1 radioligand binding, percentage inhibition (Human δ-opioid (DOP)) | A7 radioligand binding, percentage inhibition (Human μ-opioid (MOP)) | A4 radioligand binding, percentage inhibition (Human Melanocortin (MC4)) | A9: inhibition of radioligand binding ([1]; FlashPlate) | A3: inhibition of radioligand binding (Human Melanocortin (MC3); FlashPlate) | A8: inhibition of radioligand binding (Human neurokinin (NK1); filtration) | A5: inhibition of radioligand binding (Human melanocortin (MC5); FlashPlate) | A10: inhibition of radioligand binding (Human opioid (ORL1); FlashPlate) | A11: inhibition of radioligand binding (Mouse urotensin (mUR2); FlashPlate) | A6: inhibition of radioligand binding ([2]; [125I]-S36057, FlashPlate) | A2: inhibition of radioligand binding (Human κ-Opioid (KOP); filtration) | A1: inhibition of radioligand binding (Human δ-opioid (DOP); FlashPlate) | other results
1 | CO[C@H]1[C@H](O)[C@@H](COCc2cccc(O)c2)OC(OCCc2ccccc2)[C@@H]1NC(=O)CNC(=N)N (stereo partly shown) [compound 158] | − (“−” indicates less than 50% inhibition at 10 μM) | − (“−” indicates less than 50% inhibition at 10 μM) | + (“+” indicates greater than 50% inhibition at 10 μM) | − (“−” indicates less than 50% inhibition at 10 μM) | − (“−” indicates less than 50% inhibition at 10 μM) | − (“−” indicates less than 50% inhibition at 10 μM) | − (“−” indicates less than 50% inhibition at 10 μM) | − (“−” indicates less than 50% inhibition at 10 μM) | − (“−” indicates less than 50% inhibition at 10 μM) | − (“−” indicates less than 50% inhibition at 10 μM) | − (“−” indicates less than 50% inhibition at 10 μM) |  |  |  |  |  |  |  |  |  | 
2 | NCCCC(=O)NC1C(OCc2ccc3ccccc3c2)OC(COCc2ccc(Cl)cc2)C(O)C1OCc1ccc2ccccc2c1 (stereo not shown) [compound 395] |  |  |  |  |  |  |  |  |  |  |  |  |  |  |  |  |  |  |  |  | A9: inhibition of radioligand binding ([1]; human NPY-Y1 membranes): − (“−” indicates less than 50% inhibition at 10 μM); A3: inhibition of radioligand binding (Human Melanocortin (MC3); human MC3 membranes): + (“+” indicates greater than 50% inhibition at 10 μM); A8: inhibition of radioligand binding (Human neurokinin (NK1); human NK1 membranes): + (“+” indicates greater than 50% inhibition at 10 μM); A5: inhibition of radioligand binding (Human melanocortin (MC5); human MC5 membranes): + (“+” indicates greater than 50% inhibition at 10 μM); A10: inhibition of radioligand binding (Human opioid (ORL1); human ORL1 membranes, 10 µM): + (“+” indicates greater than 50% inhibition at 10 μM); A11: inhibition of radioligand binding (Mouse urotensin (mUR2); mouse mUR2 membranes): − (“−” indicates less than 50% inhibition at 10 μM); A6: inhibition of radioligand binding ([2]; [125I]-S36057, human MCH1 membranes, 10 µM): − (“−” indicates less than 50% inhibition at 10 μM); A2: inhibition of radioligand binding (Human κ-Opioid (KOP); human KOP membranes, 10 µM): − (“−” indicates less than 50% inhibition at 10 μM); A1: inhibition of radioligand binding (Human δ-opioid (DOP); human DOP membranes): − (“−” indicates less than 50% inhibition at 10 μM); A7: inhibition of radioligand binding (Human μ-opioid (MOP); human MOP membranes): − (“−” indicates less than 50% inhibition at 10 μM); A4: inhibition of radioligand binding (Human Melanocortin (MC4); human MC4 membranes): + (“+” indicates greater than 50% inhibition at 10 μM)
3 | COCC1OC(OCc2ccc3ccccc3c2)C(NC(=O)CCCNC(=N)N)C(OCc2ccc3ccccc3c2)C1O (stereo not shown) [compound 250] |  |  |  |  |  |  |  |  |  |  |  | − (“−” indicates less than 50% inhibition at 10 μM) | − (“−” indicates less than 50% inhibition at 10 μM) | + (“+” indicates greater than 50% inhibition at 10 μM) | + (“+” indicates greater than 50% inhibition at 10 μM) | + (“+” indicates greater than 50% inhibition at 10 μM) | − (“−” indicates less than 50% inhibition at 10 μM) | + (“+” indicates greater than 50% inhibition at 10 μM) | − (“−” indicates less than 50% inhibition at 10 μM) | − (“−” indicates less than 50% inhibition at 10 μM) | A7: inhibition of radioligand binding (Human μ-opioid (MOP); FlashPlate): − (“−” indicates less than 50% inhibition at 10 μM); A4: inhibition of radioligand binding (Human Melanocortin (MC4); FlashPlate): + (“+” indicates greater than 50% inhibition at 10 μM)
4 | CO[C@H]1[C@H](O)[C@@H](COCc2ccc3ccccc3c2)OC(OCc2cccc(O)c2)[C@@H]1NC(=O)CCCN (stereo partly shown) [compound 167] | − (“−” indicates less than 50% inhibition at 10 μM) | − (“−” indicates less than 50% inhibition at 10 μM) | + (“+” indicates greater than 50% inhibition at 10 μM) | − (“−” indicates less than 50% inhibition at 10 μM) | − (“−” indicates less than 50% inhibition at 10 μM) | − (“−” indicates less than 50% inhibition at 10 μM) | − (“−” indicates less than 50% inhibition at 10 μM) | − (“−” indicates less than 50% inhibition at 10 μM) | − (“−” indicates less than 50% inhibition at 10 μM) | − (“−” indicates less than 50% inhibition at 10 μM) | − (“−” indicates less than 50% inhibition at 10 μM) |  |  |  |  |  |  |  |  |  | 
5 | COCC1OC(OCc2ccc(Cl)cc2)C(NC(=O)CN)C(OCc2ccc(Cl)cc2)C1O (stereo not shown) [compound 199] |  |  |  |  |  |  |  |  |  |  |  | − (“−” indicates less than 50% inhibition at 10 μM) | − (“−” indicates less than 50% inhibition at 10 μM) | + (“+” indicates greater than 50% inhibition at 10 μM) | − (“−” indicates less than 50% inhibition at 10 μM) | − (“−” indicates less than 50% inhibition at 10 μM) | − (“−” indicates less than 50% inhibition at 10 μM) | − (“−” indicates less than 50% inhibition at 10 μM) | − (“−” indicates less than 50% inhibition at 10 μM) | − (“−” indicates less than 50% inhibition at 10 μM) | A7: inhibition of radioligand binding (Human μ-opioid (MOP); FlashPlate): − (“−” indicates less than 50% inhibition at 10 μM); A4: inhibition of radioligand binding (Human Melanocortin (MC4); FlashPlate): − (“−” indicates less than 50% inhibition at 10 μM)
